Experimental data from article PMC10568461, “A pilot study of cerebral metabolism and serotonin 5-HT2A receptor occupancy in rats treated with the psychedelic tryptamine DMT in conjunction with the MAO inhibitor harmine” (Frontiers in Pharmacology, 2023).

Experiments:
brain 5-HT2A receptors = conditions: calculated; humans, oral DMT and harmine; ref Koeck, 2015; cited from earlier work
5-HT2C receptors = biological target: 5-HT2C receptors; parameters: method as in ref Lyon et al., 1988; Pierce and Peroutka, 1989; McKenna et al., 1990; Keiser et al., 2009; Ray, 2010; conditions: ref Lyon et al., 1988; Pierce and Peroutka, 1989; McKenna et al., 1990; Keiser et al., 2009; Ray, 2010; cited from earlier work
[1] = Brain concentrations of harmine, DMT and metabolites by UHPLC-MS after s.c. harmine and/or DMT; conditions: for concentration at 95 min / concentration at 65 min: rat, subcutaneous
Description: Groups of (n = 6) rats received either saline, harmine (1 mg/kg), DMT (1 mg/kg), or harmine + DMT (1 mg/kg each) as subcutaneous injections, as indicated in Figure 1.
After 45 min, rats were sacrificed by decapitation, and the brains dissected into cerebellum and frontal cortex samples for radioactivity measurement and chemical analysis, thus 65 min after harmine + DMT.

[2] = biological target: T1, serotonin 5-HT2A receptors (Rattus norvegicus, UniProt P14842); assay: Ex vivo occupancy at frontal cortex 5-HT2A receptors with [^18F]MH.MZ (experiment 2); type: in vivo; conditions: Experiment 2, [^18F]MH.MZ
T1 construct: from tissue; host or cells: rat frontal cortex (living rat brain, measured ex vivo after in vivo radioligand injection)
Description: Animals were lightly sedated using 2% isoflurane in pure oxygen at 20 min post DMT injection, whereupon they received a 0.2 mL intravenous injection of [^18F]MH.MZ diluted in saline to a radiochemical concentration of approximately 20 MBq/mL. Rats then returned to their home cage with withdrawal of anesthesia. After 45 min, rats were sacrificed by decapitation, and the brains dissected into cerebellum and frontal cortex samples for radioactivity measurement and chemical analysis, thus 65 min after harmine + DMT. The gamma-activity in weighed samples of cerebellum and frontal cortex regions was counted with a Packard Cobra gamma counter (GMI, Ramsey, Minnesota, US), as previously reported ([Bærentzen et al., 2019]). As with [^3H]ketanserin, the occupancy at [^18F]MH.MZ binding sites in frontal cortex was calculated from the specific binding ratio (cortex-cerebellum)/cerebellum) measured in the saline control and treatment groups.

[3] = biological target: T1, serotonin 5-HT2A receptors; assay: Ex vivo occupancy at frontal cortex 5-HT2A receptors with [^3H]ketanserin (experiment 1); type: in vivo
Description: Groups of (n = 6) rats received either saline, harmine (1 mg/kg), DMT (1 mg/kg), or harmine + DMT (1 mg/kg each) as subcutaneous injections, as indicated in Figure 1. Approximately 5 minutes later, the animals were lightly anesthetized using (2% isoflurane in pure oxygen) and received [^3H]ketanserin (300 kBq; 740 MBq/µmol) as a bolus injection in 0.2 mL saline via a tail vein. […] At the conclusion of the PET recording, rats were sacrificed while still anesthetized, thus 95 min after drug administration. Terminal samples of cerebellum (non-binding reference tissue) and frontal cortex were transferred to preweighed 7 mL liquid scintillation vials, reweighed, and added with 0.9 mL of aqueous based solubilizer (Solvable, Perkin Elmer) for dissolution during 48 h at room temperature. Next, 7 mL of liquid scintillation counting cocktail (Ultima Gold™ XR, Perkin Elmer) was added to each sample, and the content of tritium (i.e., [^3H]ketanserin, cpm/mg) was measured by liquid scintillation counting (TRI-CARB, Perkin Elmer). We calculated the occupancy by DMT at frontal cortex 5-HT2A receptors for the three treatment groups relative to the specific binding ratio ([cortex-cerebellum]/cerebellum) for the control group.

[4] = biological target: serotonin 5-HT2A receptors; parameters: method as in ref Lyon et al., 1988; Pierce and Peroutka, 1989; McKenna et al., 1990; Keiser et al., 2009; Ray, 2010; conditions: ref Lyon et al., 1988, Pierce and Peroutka, 1989, McKenna et al., 1990, Keiser et al., 2009, Ray, 2010, cited from earlier work
serotonin 5-HT1A = tested on: serotonin 5-HT1A; parameters: method as in ref Lyon et al., 1988; Pierce and Peroutka, 1989; McKenna et al., 1990; Keiser et al., 2009; Ray, 2010; conditions: ref Lyon et al., 1988; Pierce and Peroutka, 1989; McKenna et al., 1990; Keiser et al., 2009; Ray, 2010; cited from earlier work
rats = assay: Behavioural observations in treated rats; type: in vivo, rat; conditions: in some DMT- (and harmine-) treated rats; not systematically assessed
brain glucose metabolism = assay: [^18F]FDG-PET of cerebral glucose metabolism (experiment 1); type: in vivo, rat; conditions: for [^18F]FDG-PET SUV normalized to whole-brain uptake (SUVglob): 1 mg/kg s.c.; for [^18F]FDG-PET SUV normalized to whole-brain uptake (SUVglob) / [^18F]FDG-PET glucose normalized SUV (SUVgluc): mean (SD)
Description: The dynamic PET recordings were histogrammed into six frames of 5 minutes each, and reconstructed with attenuation, decay, and scatter correction using the OSEM3D/SP-MAP algorithm (2 x OSEM iterations and 18 x MAP iterations) with a matrix size of 128 × 128 pixels, resulting in a final target resolution of 0.8 mm/pixel. Pre-processing of PET scans was performed using PMOD v4.2 (PMOD Technologies LLC, Zurich, Switzerland). The [^18F]FDG images were averaged across the six frames and then converted into standardized uptake values (SUV), whereupon the image was cropped to the head of the animal and automatically co-registered to a standard [^18F]FDG-PET template. We used Schiffer’s atlas ([Schiffer et al., 2006]) for parcellation of bilateral brain regions within the cortico-striato-thalamo-cortical (CSTC) circuit, i.e. bilateral nucleus accumbens (NAc), medial prefrontal cortex (mPFC), orbitofrontal cortex (OFC), hippocampus, striatum, thalamus, visual cortex, cerebellum as a comparator region, and whole brain. We selected these regions from the CSTC circuit based on a conceptual model holding that the thalamus acts as a filter/gatekeeper of sensory information, broadcasting to cortical regions that subserve conscious experience ([Wang et al., 2006]; [McAlonan et al., 2008]). Perturbation of this CSTC circuit is implicated in the action of psychedelic compounds ([Geyer and Vollenweider, 2008]; [Preller et al., 2019]). We scaled individual regional SUV results to the mean blood glucose levels measured during the recording session (SUVgluc) and to the global [^18F]FDG uptake (SUVglob).

T1 sequence (P14842 whole entry): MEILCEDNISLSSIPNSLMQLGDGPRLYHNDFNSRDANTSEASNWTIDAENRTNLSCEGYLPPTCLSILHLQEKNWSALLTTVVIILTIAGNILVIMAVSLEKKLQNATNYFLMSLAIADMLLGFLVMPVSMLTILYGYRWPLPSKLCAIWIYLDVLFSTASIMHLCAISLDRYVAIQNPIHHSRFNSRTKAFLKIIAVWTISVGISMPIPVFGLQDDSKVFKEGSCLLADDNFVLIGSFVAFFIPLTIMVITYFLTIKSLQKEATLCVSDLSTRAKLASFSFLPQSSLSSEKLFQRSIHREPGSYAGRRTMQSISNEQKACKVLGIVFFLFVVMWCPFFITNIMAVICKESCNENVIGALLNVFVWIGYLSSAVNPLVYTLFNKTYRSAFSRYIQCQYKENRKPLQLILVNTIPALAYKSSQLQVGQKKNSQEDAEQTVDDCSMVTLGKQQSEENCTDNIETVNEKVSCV

CN(C)CCc1c[nH]c2ccccc12 [DMT, N,N-dimethyltryptamine]
Time of peak DMT occupancy post-administration (brain 5-HT2A receptors): 0.5 to 1.5 h
IC50 (5-HT2C receptors): 360 nM
Ki (5-HT2C receptors): 360 to 2630 nM
Percentage of total molar concentration of DMT and metabolites ([1]; Exp 1, group DMT, average of regions): 2.3%
Percentage of total molar concentration of DMT and metabolites ([1]; Exp 1, group DMT, cerebellum): 2.0%
Percentage of total molar concentration of DMT and metabolites ([1]; Exp 1, group DMT, front cort): 2.6%
Percentage of total molar concentration of DMT and metabolites ([1]; Exp 1, group Har + DMT, average of regions): 33.9%
Percentage of total molar concentration of DMT and metabolites ([1]; Exp 1, group Har + DMT, cerebellum): 32.9%
Percentage of total molar concentration of DMT and metabolites ([1]; Exp 1, group Har + DMT, front cort): 34.7%
Percentage of total molar concentration of DMT and metabolites ([1]; Exp 2, group Har + DMT, average of regions): 73.3%
Percentage of total molar concentration of DMT and metabolites ([1]; Exp 2, group Har + DMT, cerebellum): 71.1%
Percentage of total molar concentration of DMT and metabolites ([1]; Exp 2, group Har + DMT, front cort): 74.9%
DMT detectable in brain ([1]; Experiment 1, after DMT alone (1 mg/kg)): Only traces
Brain concentration ([1]; Experiment 1, cerebellum, group Har + DMT (1 mg/kg each s.c.), 95 min, mean (SD)): 105.1 (89.2) ng/g
Brain concentration ([1]; Experiment 1, frontal cortex, group Har + DMT (1 mg/kg each s.c.), 95 min, mean (SD)): 149.5 (123.2) ng/g
DMT/3-IAA ratio in brain ([1]; Experiment 1, harmine + DMT 1 mg/kg each): approximately 0.53
Brain concentration ([1]; Experiment 2, cerebellum, group Har + DMT (3 mg/kg each s.c.), 65 min, mean (SD)): 1472.7 (369.2) ng/g
Brain concentration ([1]; Experiment 2, frontal cortex, group Har + DMT (3 mg/kg each s.c.), 65 min, mean (SD)): 2122.7 (434.2) ng/g
DMT/3-IAA ratio in brain ([1]; Experiment 2, harmine + DMT 3 mg/kg each): ~2.83
Brain concentration after 3 mg/kg harmine + DMT relative to the lower harmine + DMT dose ([1]; Experiment 2 versus experiment 1): 14 fold
Higher DMT concentration in frontal cortex compared to cerebellum ([1]; Experiments 1 and 2, harmine + DMT): 50%
concentration at 95 min ([1]; brain (average of frontal cortex and cerebellum), 1 mg/kg, Molar concentration, Exp 1, group DMT, average of regions): 61.5 nM
concentration at 95 min ([1]; brain (average of frontal cortex and cerebellum), Molar concentration, Exp 1, group Har + DMT, average of regions): 676 nM
concentration at 65 min ([1]; brain (average of frontal cortex and cerebellum), Molar concentration, Exp 2, group Har + DMT, average of regions): 9550 nM
concentration at 95 min ([1]; cerebellum, 1 mg/kg, Brain concentration, Experiment 1, cerebellum, group DMT (1 mg/kg s.c.), 95 min, mean (SD)): 8.7 ng/g
concentration at 95 min ([1]; cerebellum, 1 mg/kg, Molar concentration, Exp 1, group DMT, cerebellum): 46 nM
concentration at 95 min ([1]; cerebellum, Brain concentration, Experiment 1, cerebellum, after harmine + DMT (1 mg/kg each)): 600 nM
concentration at 95 min ([1]; cerebellum, Brain concentration, Experiment 1, cerebellum, group Har (harmine 1 mg/kg s.c.), 95 min after drug, mean (SD)): 4.1 ng/g
concentration at 95 min ([1]; cerebellum, Brain concentration, Experiment 1, cerebellum, group Har + DMT (1 mg/kg each s.c.), 95 min, mean (SD)): 105 ng/g
concentration at 65 min ([1]; cerebellum, Brain concentration, Experiment 2, cerebellum, after harmine + DMT (3 mg/kg each)): 7800 nM
concentration at 65 min ([1]; cerebellum, Brain concentration, Experiment 2, cerebellum, group Har + DMT (3 mg/kg each s.c.), 65 min, mean (SD)): 1470 ng/g
concentration at 95 min ([1]; cerebellum, Molar concentration, Exp 1, group Har + DMT, cerebellum): 558 nM
concentration at 65 min ([1]; cerebellum, Molar concentration, Exp 2, group Har + DMT, cerebellum): 7820 nM
concentration at 95 min ([1]; frontal cortex, 1 mg/kg, Brain concentration, Experiment 1, frontal cortex, group DMT (1 mg/kg s.c.), 95 min, mean (SD)): 14.5 ng/g
concentration at 95 min ([1]; frontal cortex, 1 mg/kg, Molar concentration, Exp 1, group DMT, front cort): 77.1 nM
concentration at 95 min ([1]; frontal cortex, Brain concentration, Experiment 1, frontal cortex, after harmine + DMT (1 mg/kg each), 95 min): 800 nM
concentration at 95 min ([1]; frontal cortex, Brain concentration, Experiment 1, frontal cortex, group Har (harmine 1 mg/kg s.c.), 95 min, mean (SD)): 4.8 ng/g
concentration at 95 min ([1]; frontal cortex, Brain concentration, Experiment 1, frontal cortex, group Har + DMT (1 mg/kg each s.c.), 95 min, mean (SD)): 150 ng/g
concentration at 65 min ([1]; frontal cortex, Brain concentration, Experiment 2, frontal cortex, after harmine + DMT (3 mg/kg each), 65 min): ≤ 11300 nM
concentration at 65 min ([1]; frontal cortex, Brain concentration, Experiment 2, frontal cortex, group Har + DMT (3 mg/kg each s.c.), 65 min, mean (SD)): 2120 ng/g
concentration at 95 min ([1]; frontal cortex, Molar concentration, Exp 1, group Har + DMT, front cort): 794 nM
concentration at 65 min ([1]; frontal cortex, Molar concentration, Exp 2, group Har + DMT, front cort): 11300 nM
Occupancy at 5-HT2A sites ex vivo [2]: unable to detect any such occupancy
[^3H]ketanserin specific binding ratio in frontal cortex ([3]; Experiment 1, 1 mg/kg each s.c., 95 min after administration, (cortex-cerebellum)/cerebellum): 2.15 ± 0.39
Occupancy at 5-HT2A sites ex vivo ([3]; Experiment 1, [^3H]ketanserin): unable to detect any such occupancy
IC50 ([4]; read-out: IC50 at 5-HT2A receptors in vitro): 75 to 360 nM
Ki ([4]; read-out: Ki at 5-HT2A receptors in vitro): 127 to 1200 nM
IC50 (serotonin 5-HT1A): 170 nM
Ki (serotonin 5-HT1A): 183 nM
Head twitch response (rats): observed the characteristic dose-dependent head twitch response
Qualitative effect on brain [^18F]FDG uptake (SUVglob maps) (brain glucose metabolism; 1 mg/kg, separately or in combination): no conspicuous effects
Trend towards relative increase in SUVglob in hippocampus and thalamus (brain glucose metabolism; Experiment 1, 1 mg/kg): ~5%
[^18F]FDG-PET SUV normalized to whole-brain uptake (SUVglob) (brain glucose metabolism; NAc): 6.2 (0.36) SUV
[^18F]FDG-PET glucose normalized SUV (SUVgluc) (brain glucose metabolism; NAc, 1 mg/kg): 6.48 (0.93) SUV
[^18F]FDG-PET SUV normalized to whole-brain uptake (SUVglob) (brain glucose metabolism; OFC): 6.52 (0.15) SUV
[^18F]FDG-PET glucose normalized SUV (SUVgluc) (brain glucose metabolism; OFC, 1 mg/kg): 6.82 (0.84) SUV
[^18F]FDG-PET SUV normalized to whole-brain uptake (SUVglob) (brain glucose metabolism; cerebellum): 4.56 (0.23) SUV
[^18F]FDG-PET glucose normalized SUV (SUVgluc) (brain glucose metabolism; cerebellum, 1 mg/kg): 4.76 (0.64) SUV
[^18F]FDG-PET SUV normalized to whole-brain uptake (SUVglob) (brain glucose metabolism; hippocampus): 4.95 (0.21) SUV
[^18F]FDG-PET glucose normalized SUV (SUVgluc) (brain glucose metabolism; hippocampus, 1 mg/kg): 5.2 (0.85) SUV
[^18F]FDG-PET SUV normalized to whole-brain uptake (SUVglob) (brain glucose metabolism; mPFC): 6.95 (0.34) SUV
[^18F]FDG-PET glucose normalized SUV (SUVgluc) (brain glucose metabolism; mPFC, 1 mg/kg): 7.3 (1.24) SUV
[^18F]FDG-PET SUV normalized to whole-brain uptake (SUVglob) (brain glucose metabolism; striatum): 6.91 (0.24) SUV
[^18F]FDG-PET glucose normalized SUV (SUVgluc) (brain glucose metabolism; striatum, 1 mg/kg): 7.24 (1.07) SUV
[^18F]FDG-PET SUV normalized to whole-brain uptake (SUVglob) (brain glucose metabolism; thalamus): 6.33 (0.1) SUV
[^18F]FDG-PET glucose normalized SUV (SUVgluc) (brain glucose metabolism; thalamus, 1 mg/kg): 6.62 (0.86) SUV
[^18F]FDG-PET SUV normalized to whole-brain uptake (SUVglob) (brain glucose metabolism; visual cortex): 6.27 (0.13) SUV
[^18F]FDG-PET glucose normalized SUV (SUVgluc) (brain glucose metabolism; visual cortex, 1 mg/kg): 6.57 (0.99) SUV
[^18F]FDG-PET glucose normalized SUV (SUVgluc) (brain glucose metabolism; whole brain, 1 mg/kg): 5.8 (0.81) SUV
